# Reference: patent publication US11807634B2, “Cyclopropyl dihydroquinoline sulfonamide compounds” (AMGEN INC., priority 2020, dated 2023)
# Tested on: CYP3A4
# Test: Human CYP 3A4 induction assay (mRNA, cryopreserved human hepatocytes)
# Assay type: in vitro ADME
# Conditions: human hepatocytes, 10 uM test compound, 72 hours, mRNA, percent of control (rifampin positive control)
# Method: Human CYP 3A4 Induction Assay
# Cryopreserved human hepatocytes were seeded in 96-well collagen coated plates at 70,000 cells per well in hepatocyte plating media (HPM, final concentrations: 1× Dulbecco's Modified Eagle's Medium, 0.1 μM dexamethasone, 10% fetal bovine serum, 1× ITS, 1×PSG) followed by incubation at 37° C. under 5% CO2 and 90% relative humidity for 2 days to allow hepatocytes to form a confluent layer. On Day 3, hepatocytes were treated with either test compound or rifampin (20 μM, positive control for CYP3A induction) prepared in hepatocyte incubation media ((HIM, final concentrations: 1× William's Medium E, 0.1 μM dexamethasone, 1×ITS, 1×PSG). Treatment was performed for 72 hours with either 2 concentrations (2 μM or 10 μM) or a range of concentrations (0.001 μM to 100 μM) of the test compound to obtain full dose-response curve. Fresh media containing the relevant concentrations of the test compound was replaced every day until the samples were processed. After 72 hours of incubation, samples were processed for mRNA analysis using bDNA technology using manufacturer's instructions (Affymetrix, Fremont, Calif.). Cell viability was tested at the end of the experiment using MTT assay kit (Roche Diagnostics, Basel, Switzerland). Data was analyzed and presented as percent of control (POC) and Emax and EC50 obtained when appropriate according to guidance from Center for Drug Evaluation and Research (CDER), 2006, Guidance for Industry, Drug Interaction Studies—Study Design, Data Analysis, and Implications for Dosing and Labeling.
# Cryopreserved human hepatocytes were seeded in 96-well collagen coated plates at 70,000 cells per well in hepatocyte plating media (HPM, final concentrations: 1× Dulbecco's Modified Eagle's Medium, 0.1 μM dexamethasone, 10% fetal bovine serum, 1×ITS, 1×PSG) followed by incubation at 37° C. under 5% CO2 and 90% relative humidity for 2 days to allow hepatocytes to form a confluent layer. On Day 3, hepatocytes were treated with either test compound or rifampin (20 μM, positive control for CYP3A induction) prepared in hepatocyte incubation media ((HIM, final concentrations: 1× William's Medium E, 0.1 μM dexamethasone, 1×ITS, 1×PSG). Treatment was performed for 72 hours with either 2 concentrations (2 μM or 10 μM) or a range of concentrations (0.001 μM to 100 μM) of the test compound to obtain full dose-response curve. Fresh media containing the relevant concentrations of the test compound was replaced every day until the samples were processed. After 72 hours of incubation, samples were processed for mRNA analysis using bDNA technology using manufacturer's instructions (Affymetrix, Fremont, Calif.). Cell viability was tested at the end of the experiment using MTT assay kit (Roche Diagnostics, Basel, Switzerland). Data was analyzed and presented as percent of control (POC) and Emax and EC50 obtained when appropriate, as described in Halladay, J. et al, 2012, An “all-inclusive” 96-well cytochrome P450 induction method: Measuring enzyme activity, mRNA levels, protein levels, and cytotoxicity from one well using cryopreserved human hepatocytes, Pharmacological and Toxicological Methods, 66:270-275.
# The cytochrome P450 (CYP) is a well-known superfamily of enzymes that are responsible for the oxidative and reductive metabolic transformation of medications used in clinical practice. In addition, the CYP enzymes are commonly associated with causing many clinically relevant drug-drug interactions. Of the CYP enzymes, CYP3A4 is not only the most prevalent CYP enzyme in the liver and intestine, but is responsible for metabolism and elimination of approximately 50% of marketed drugs. In addition, CYP3A4 activity can be induced (or increased) or inhibited (decreased) in response to administration of certain drugs, thereby affecting concentrations of their own or certain concomitant drugs present in the body. […]
row,CYP3A4 mRNA Induct Hu 10 uM POC,SMILES
1,53.28%,"COc1cc([C@@H]2C[C@H]2C(F)(F)F)c(F)cc1-n1c(=O)ccc2cc(S(=O)(=O)Nc3ncco3)ccc21 (atropisomer, axis not shown; (P)) [Example 35, (P)-1-(5-fluoro-2-methoxy-4-((1R,2R)-2-(trifluoromethyl)cyclopropyl)phenyl)-N-(oxazol-2-yl)-2-oxo-1,2-dihydroquinoline-6-sulfonamide]"
2,16.39%,"COc1cc([C@H]2C[C@@H]2C(F)(F)F)c(C#N)cc1-n1c(=O)ccc2cc(S(=O)(=O)Nc3ccon3)ccc21 (atropisomer, axis not shown; (P)) [Example 37, (P)-1-(5-cyano-2-methoxy-4-((1S,2S)-2-(trifluoromethyl)cyclopropyl)phenyl)-N-(isoxazol-3-yl)-2-oxo-1,2-dihydroquinoline-6-sulfonamide]"
3,74.53%,"COc1cc([C@H]2C[C@@H]2C(F)(F)F)c(C)cc1-n1c(=O)ccc2cc(S(=O)(=O)Nc3ncccn3)ccc21 (atropisomer, axis not shown; (P)) [Example 29, (P)-1-(2-methoxy-5-methyl-4-((1S,2S)-2-(trifluoromethyl)cyclopropyl)phenyl)-2-oxo-N-(pyrimidin-2-yl)-1,2-dihydroquinoline-6-sulfonamide]"
4,25.49%,"COc1cc([C@@H]2C[C@H]2C)c(F)cc1-n1c(=O)ccc2cc(S(=O)(=O)Nc3ccon3)ccc21 (atropisomer, axis not shown; (P)) [Example 6, (P)-1-(5-fluoro-2-methoxy-4-((1R,2R)-2-methylcyclopropyl)phenyl)-N-(isoxazol-3-yl)-2-oxo-1,2-dihydroquinoline-6-sulfonamide]"
5,100.7%,"COc1cc(C2(C(F)(F)F)CC2)c(Cl)cc1-n1c(=O)ccc2cc(S(=O)(=O)Nc3ccon3)ccc21 (atropisomer, axis not shown; (P)) [Example 24, (P)-1-(5-chloro-2-methoxy-4-(1-(trifluoromethyl)cyclopropyl)phenyl)-N-(isoxazol-3-yl)-2-oxo-1,2-dihydroquinoline-6-sulfonamide]"
6,37.04%,"COc1cc([C@H]2C[C@@H]2C(F)(F)F)c(F)cc1-n1c(=O)ccc2cc(S(=O)(=O)Nc3cccnn3)ccc21 (atropisomer, axis not shown; (P)) [Example 17, (P)-1-(5-fluoro-2-methoxy-4-((1S,2S)-2-(trifluoromethyl)cyclopropyl)phenyl)-2-oxo-N-(pyridazin-3-yl)-1,2-dihydroquinoline-6-sulfonamide]"
7,102.8%,"COc1cc([C@H]2C[C@@H]2C(F)(F)F)c(F)cc1-n1c(=O)ccc2cc(S(=O)(=O)Nc3ncco3)ccc21 (atropisomer, axis not shown; (P)) [Example 36, (P)-1-(5-fluoro-2-methoxy-4-((1S,2S)-2-(trifluoromethyl)cyclopropyl)phenyl)-N-(oxazol-2-yl)-2-oxo-1,2-dihydroquinoline-6-sulfonamide]"
8,37.165%,"COc1cc([C@H]2C[C@@H]2c2ccccc2)c(F)cc1-n1c(=O)ccc2cc(S(=O)(=O)Nc3ccon3)ccc21 (atropisomer, axis not shown; (P)) [Example 9, (P)-1-(5-fluoro-2-methoxy-4-((1S,2S)-2-phenylcyclopropyl)phenyl)-N-(isoxazol-3-yl)-2-oxo-1,2-dihydroquinoline-6-sulfonamide]"
9,23.36%,"COc1cc([C@@H]2C[C@H]2C(F)(F)F)c(C)cc1-n1c(=O)ccc2cc(S(=O)(=O)Nc3ncccn3)ccc21 (atropisomer, axis not shown; (P)) [Example 28, (P)-1-(2-methoxy-5-methyl-4-((1R,2R)-2-(trifluoromethyl)cyclopropyl)phenyl)-2-oxo-N-(pyrimidin-2-yl)-1,2-dihydroquinoline-6-sulfonamide]"
10,92.47%,"COc1cc([C@@H]2C[C@H]2C(F)(F)F)c(Cl)cc1-n1c(=O)ccc2cc(S(=O)(=O)Nc3ncccn3)ccc21 (atropisomer, axis not shown; (P)) [Example 13, (P)-1-(5-chloro-2-methoxy-4-((1R,2R)-2-(trifluoromethyl)cyclopropyl)phenyl)-2-oxo-N-(pyrimidin-2-yl)-1,2-dihydroquinoline-6-sulfonamide]"
11,27.54%,"COc1cc([C@@H]2C[C@H]2c2ccccc2)c(F)cc1-n1c(=O)ccc2cc(S(=O)(=O)Nc3ccon3)ccc21 (atropisomer, axis not shown; (P)) [Example 8, (P)-1-(5-fluoro-2-methoxy-4-((1R,2R)-2-phenylcyclopropyl)phenyl)-N-(isoxazol-3-yl)-2-oxo-1,2-dihydroquinoline-6-sulfonamide]"
12,26.89%,"COc1cc([C@@H]2C[C@H]2C(F)(F)F)c(F)cc1-n1c(=O)cc(F)c2cc(S(=O)(=O)Nc3ccon3)ccc21 (atropisomer, axis not shown; (P)) [Example 44, (P)-4-fluoro-1-(5-fluoro-2-methoxy-4-((1R,2R)-2-(trifluoromethyl)cyclopropyl)phenyl)-N-(isoxazol-3-yl)-2-oxo-1,2-dihydroquinoline-6-sulfonamide]"
13,14.245%,"COc1cc([C@@H]2C[C@H]2C(F)(F)F)ccc1-n1c(=O)ccc2cc(S(=O)(=O)Nc3ccon3)c(F)cc21 (atropisomer, axis not shown; (P)) [Example 47, (P)-7-fluoro-N-(isoxazol-3-yl)-1-(2-methoxy-4-((1R,2R)-2-(trifluoromethyl)cyclopropyl)phenyl)-2-oxo-1,2-dihydroquinoline-6-sulfonamide]"
14,64.14%,"COc1cc([C@H]2C[C@@H]2C(F)(F)F)c(C)cc1-n1c(=O)ccc2cc(S(=O)(=O)Nc3ccon3)ccc21 (single isomer, unassigned) [Example 27]"
15,84.31%,"COc1cc(C2CC2)c(F)cc1-n1c(=O)ccc2cc(S(=O)(=O)Nc3ccon3)ccc21 [A, 1-(4-cyclopropyl-5-fluoro-2-methoxyphenyl)-N-(isoxazol-3-yl)-2-oxo-1,2-dihydroquinoline-6-sulfonamide, reference compound]"
